According to patent US4416884A, “Piperazinylbenzoheterocyclic compounds” (Otsuka Pharmaceutical Co., Ltd., priority 1978, dated 1983):
Converted amounts (≈) assume the structure as drawn. Where two headings read alike, the source gives them in different places.

Assays:
Format in all cases: cell-based
[1] = tested on: Pseudomonas putida IFO 13696; assay: antimicrobial activity, serial dilution method on agar plate; settings: read-out: Minimum Inhibitory Concentration
In short: (§1)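 Reported figure is the lowest compound level (mcg/ml) inhibiting growth on Heart Infusion agar in a serial plate dilution. Suspensions of 1×10^8 and 1×10^6 cells/ml served as inocula.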

[2] = tested on: Pseudomonas maltophilia IFO 12692; assay: as above; settings: Stenotrophomonas maltophilia, IFO12692, read-out: Minimum Inhibitory Concentration
In short: as §1

[3] = tested on: Hafnia alvei IFO 3731; assay: as above; settings: read-out: Minimum Inhibitory Concentration
In short: as §1

[4] = tested on: Yersinia enterocolitica 0-3; assay: as above
In short: as §1

[5] = tested on: Escherichia Coli NIHJ; assay: as above; settings: read-out: Minimum Inhibitory Concentration
In short: as §1

[6] = tested on: Escherichia Coli NIHJ JC-2 (IFO 12734); assay: as above; settings: Escherichia coli, read-out: Minimum Inhibitory Concentration
In short: as §1

[7] = tested on: Enterobacter cloacae; assay: as above
In short: as §1

[8] = tested on: Corinebacterium diphteriae; assay: as above
In short: as §1

[9] = tested on: Salmonella typhi 0-901 (NCTC 8393); assay: as above; settings: Salmonella enterica
In short: as §1

[10] = tested on: Yersinia enterocolitica 0-5; assay: as above
[11] = tested on: Aeromonas hydrophila IFO 12658; assay: antimicrobial activity on bacteria which cause infectious diseases in fish
Procedure: (§2) The antimicrobial activity of the following test compounds on various test organisms listed below was determined by the serial dilution method on agar plate (Heart Infusion agar produced by Difco Co.) (see CHEMOTHERAPY 22, pp. 1126-1128 (1974)), and the minimum inhibitory concentrations (mcg/ml) obtained are shown in Table 1 below.
(§3) A sample of each test organism was prepared so that the population of the organism was 1×10^8 cells/ml (O.D. 660 mμ=0.07 to 0.16) and 1×10^6 cells/ml (which was obtained by diluting the above 1×10^8 cells/ml preparation).
(§4) In the same manner as above, the antimicrobial activity of the following compounds on various test organisms which cause infectious diseases in fish was determined.

[12] = tested on: Aeromonas salmonicida IFO 12718; assay: as above
Procedure: as §2, §3, §4

[13] = tested on: Vibrio anguillarum IFO 12710; assay: as above
Procedure: as §2, §3, §4

[14] = tested on: Aeromonas salmonicida IFO 12659; assay: as above
Procedure: as §2, §3, §4

[15] = tested on: Pseudomonas fluorescens IFO 12180; assay: as above
Procedure: as §2, §3, §4

[16] = tested on: Aeromonas hydrophila IFO 12981; assay: as above
Procedure: as §2, §3, §4

[17] = tested on: Pseudomonas fluorescens IFO 12568; assay: as above
Procedure: as §2, §3, §4

[18] = tested on: Vibrio anguillarum IFO 13266; assay: as above
Procedure: as §2, §3, §4

[19] = read-out: Minimum Inhibitory Concentration, inoculum 1 × 10^6 cells/ml
[20] = read-out: Minimum Inhibitory Concentration, inoculum 1 × 10^8 cells/ml

CCn1cc(C(=O)O)c(=O)c2ccc(C)nc21 [E] showed an MIC ([1]; IFO13696, inoculum 1 × 10^6 cells/ml) of 50 µg/mL (≈ 215 µM), an MIC ([1]; IFO13696, inoculum 1 × 10^8 cells/ml) of 100 µg/mL (≈ 431 µM) and an MIC [2] greater than 100 µg/mL. For the same compound, the MIC ([3]; IFO3731, inoculum 1 × 10^6 cells/ml) was 50 µg/mL (≈ 215 µM), the MIC ([3]; IFO3731, inoculum 1 × 10^8 cells/ml) was 100 µg/mL (≈ 431 µM) and the MIC ([4]; Yersinia enterocolitica, 03, read-out: Minimum Inhibitory Concentration, inoculum 1 × 10^6 cells/ml) was 1.6 µg/mL (≈ 6.89 µM). For the same compound, the MIC ([4]; Yersinia enterocolitica, 03, read-out: Minimum Inhibitory Concentration, inoculum 1 × 10^8 cells/ml) was 12.5 µg/mL (≈ 53.8 µM), the MIC ([5]; inoculum 1 × 10^6 cells/ml) was 1.6 µg/mL (≈ 6.89 µM) and the MIC ([5]; inoculum 1 × 10^8 cells/ml) was 3.1 µg/mL (≈ 13.3 µM). The MIC ([6]; inoculum 1 × 10^6 cells/ml) was 3.1 µg/mL (≈ 13.3 µM), the MIC ([6]; inoculum 1 × 10^8 cells/ml) was 3.1 µg/mL (≈ 13.3 µM) and the MIC [7, 19] was 3.1 µg/mL (≈ 13.3 µM). For the same compound, the MIC [7, 20] was 3.1 µg/mL (≈ 13.3 µM), the MIC [8, 19] was greater than 100 µg/mL and the MIC [8, 20] was greater than 100 µg/mL. It also gave an MIC [9, 19] of 3.1 µg/mL (≈ 13.3 µM), an MIC [9, 20] of 3.1 µg/mL (≈ 13.3 µM) and an MIC ([10]; Yersinia enterocolitica, 05, read-out: Minimum Inhibitory Concentration, inoculum 1 × 10^6 cells/ml) of 1.6 µg/mL (≈ 6.89 µM). For the same compound, the MIC ([10]; Yersinia enterocolitica, 05, read-out: Minimum Inhibitory Concentration, inoculum 1 × 10^8 cells/ml) was 3.1 µg/mL (≈ 13.3 µM), the MIC ([11]; IFO12658, inoculum 10^6, read-out: Minimum Inhibitory Concentration) was 0.8 µg/mL (≈ 3.44 µM) and the MIC ([11]; IFO12658, inoculum 10^8, read-out: Minimum Inhibitory Concentration) was 0.8 µg/mL (≈ 3.44 µM). It also gave an MIC ([12]; IFO12718, inoculum 10^6, read-out: Minimum Inhibitory Concentration) of 0.8 µg/mL (≈ 3.44 µM), an MIC ([12]; IFO12718, inoculum 10^8, read-out: Minimum Inhibitory Concentration) of 0.8 µg/mL (≈ 3.44 µM) and an MIC ([13]; IFO12710, inoculum 10^6, read-out: Minimum Inhibitory Concentration) of 0.8 µg/mL (≈ 3.44 µM). It also gave an MIC ([13]; IFO12710, inoculum 10^8, read-out: Minimum Inhibitory Concentration) of 1.6 µg/mL (≈ 6.89 µM), an MIC ([14]; IFO12659, inoculum 10^6, read-out: Minimum Inhibitory Concentration) of 0.8 µg/mL (≈ 3.44 µM) and an MIC ([14]; IFO12659, inoculum 10^8, read-out: Minimum Inhibitory Concentration) of 0.8 µg/mL (≈ 3.44 µM). The MIC ([15]; IFO12180, inoculum 10^6, read-out: Minimum Inhibitory Concentration) was 50 µg/mL (≈ 215 µM), the MIC ([15]; IFO12180, inoculum 10^8, read-out: Minimum Inhibitory Concentration) was greater than 50 µg/mL and the MIC ([16]; IFO12981, inoculum 10^6, read-out: Minimum Inhibitory Concentration) was 0.2 µg/mL (≈ 0.861 µM). The MIC ([16]; IFO12981, inoculum 10^8, read-out: Minimum Inhibitory Concentration) was 0.4 µg/mL (≈ 1.72 µM), the MIC ([17]; IFO12568, inoculum 10^6, read-out: Minimum Inhibitory Concentration) was 50 µg/mL (≈ 215 µM) and the MIC ([17]; IFO12568, inoculum 10^8, read-out: Minimum Inhibitory Concentration) was greater than 50 µg/mL. The MIC ([18]; IFO13266, inoculum 10^6, read-out: Minimum Inhibitory Concentration) was 0.8 µg/mL (≈ 3.44 µM) and the MIC ([18]; IFO13266, inoculum 10^8, read-out: Minimum Inhibitory Concentration) was 1.6 µg/mL (≈ 6.89 µM).
